Data: PMC4632738, “New Peptide-Conjugated Chlorin-Type Photosensitizer Targeting Neuropilin-1 for Anti-Vascular Targeted Photodynamic Therapy” (International Journal of Molecular Sciences, 2015)
Entries after “also recorded” stand apart in the source; their conditions may differ. Like-named read-outs stand apart in the source and are kept apart here. Blank lines part the entries; values can stand above or below the compound they belong to. Ends that are not written are not given here. TPC = not defined here; Ahx = NCCCCCC(=O)O

Experiments:
[1] = cited from earlier work
[2] = Shake flask octanol/PBS pH 7.4 distribution coefficient; format: physicochemical; conditions: expressed as log, mean ± S.D.
Description: The distribution coefficient values at pH 7.4 from the shake flask method and the retention time from HPLC analysis of TPC and the conjugates are summarized in Table 2. The TPC-spacer-peptides were analyzed by HPLC (column Altech, Apollo C18 reverse-phase (5 μm; 250 mm × 4.6 mm)) on a Shimadzu LC-10ATvp, monitored by a UV/Visible detector at 214 and 415 nm on a SPD-10A UV-Visible detector. […] The log DpH7.4 value for TPC–Ahx–ATWLPPR obtained (2.61 ± 0.2) was also consistent with data published by Tirand et al., confirming the hydrophobic characteristic of TPC and the TPC–Ahx–ATWLPPR conjugate.
Hydrophilic and hydrophobic characteristics were also evaluated using the “shake flask” method to determine the solubility of the free TPC and the conjugates. […] The distribution coefficient, DpH7.4 was then expressed as log (mean ± S.D., n = 6).

[3] = Photophysical characterization (UV-Vis absorption, fluorescence and singlet oxygen quantum yields); format: physicochemical; conditions: ethanol, room temperature; for Molar Extinction Coefficient Soret ε415: 415 nm; for Molar Extinction Coefficient QIV ε516: 516 nm; for Molar Extinction Coefficient QIII ε543: 543 nm; for Molar Extinction Coefficient QII ε598: 598 nm; for Molar Extinction Coefficient QI ε650: 650 nm; for Fluorescence quantum yield Φf: ±0.02, reference TPP in toluene; for Singlet oxygen quantum yield Φ∆: ±0.05, reference rose Bengal in ethanol
Excerpt: Table 3 summarizes the molar extinction coefficient values of the six conjugates as well as their fluorescence and singlet oxygen quantum yield values.
The photophysical properties of TPC and the TPC–peptide conjugates were characterized using three different techniques; UV/visible absorption (Perkin Elmer Lambda 2 UV-Vis spectrophotometer, Courtaboeuf, France), fluorescence emission (SPEX Fluorolog-3 spectrofluorometer, Jobin Yvon, Longjumeau, Paris, France) and singlet oxygen emission. For UV-Vis measurements, the samples of TPC and the six conjugates were diluted in ethanol and their spectra were determined in the range of 300 to 800 nm. For fluorescence emission spectra, samples with an absorption at 415 nm equal to 0.200 (±0.02) were prepared. Solvent refractive index and absorption efficiencies of fluorescence quantum yields (Φf) were calculated based on a TPP solution in toluene as a fluorescence standard reference (Φf(ref) = 0.11) as described by Equation (2): (2) ϕf=ϕf(ref)×I/Iref×Aref/A×(n/nref)^2 where A and Aref correspond to the absorbance at 415 nm of the sample and TPP, respectively, while I and Iref are the areas under the fluorescence spectra between 600 and 750 nm of the sample and TPP, respectively. n and nref are the refractive indices of solvents used for the sample and TPP, respectively (n/nethanol = 1.361, nref/ntoluene = 1.496).
Singlet oxygen emission spectra were recorded on SPEX 1680 with […] double monochromator with a Xenon arc lamp as excitation source. Singlet oxygen generation was specifically detected at 1270 nm and the emission was monitored by using liquid nitrogen-cooled germanium-detector (EO-817P, North Coast Scientific, North Ridgeville, OH, USA). A solution of rose Bengal in ethanol was used as the reference, ΦΔ(ref) = 0.68 [25]. The singlet oxygen quantum yield was then determined using Equation (3): (3) ϕΔ=ϕΔ(ref)×I/Iref×Aref/A where A and Aref are the UV visible absorbance at 415 nm of the sample and rose Bengal (the reference), respectively, while I and Iref are the peak intensities of luminescence at 1270 nm of the sample and rose Bengal, respectively.

[4] = biological target: T1, recombinant NRP-1 protein (Homo sapiens, UniProt O14786); conditions: cited from earlier work
T1 sequence (O14786 22-923): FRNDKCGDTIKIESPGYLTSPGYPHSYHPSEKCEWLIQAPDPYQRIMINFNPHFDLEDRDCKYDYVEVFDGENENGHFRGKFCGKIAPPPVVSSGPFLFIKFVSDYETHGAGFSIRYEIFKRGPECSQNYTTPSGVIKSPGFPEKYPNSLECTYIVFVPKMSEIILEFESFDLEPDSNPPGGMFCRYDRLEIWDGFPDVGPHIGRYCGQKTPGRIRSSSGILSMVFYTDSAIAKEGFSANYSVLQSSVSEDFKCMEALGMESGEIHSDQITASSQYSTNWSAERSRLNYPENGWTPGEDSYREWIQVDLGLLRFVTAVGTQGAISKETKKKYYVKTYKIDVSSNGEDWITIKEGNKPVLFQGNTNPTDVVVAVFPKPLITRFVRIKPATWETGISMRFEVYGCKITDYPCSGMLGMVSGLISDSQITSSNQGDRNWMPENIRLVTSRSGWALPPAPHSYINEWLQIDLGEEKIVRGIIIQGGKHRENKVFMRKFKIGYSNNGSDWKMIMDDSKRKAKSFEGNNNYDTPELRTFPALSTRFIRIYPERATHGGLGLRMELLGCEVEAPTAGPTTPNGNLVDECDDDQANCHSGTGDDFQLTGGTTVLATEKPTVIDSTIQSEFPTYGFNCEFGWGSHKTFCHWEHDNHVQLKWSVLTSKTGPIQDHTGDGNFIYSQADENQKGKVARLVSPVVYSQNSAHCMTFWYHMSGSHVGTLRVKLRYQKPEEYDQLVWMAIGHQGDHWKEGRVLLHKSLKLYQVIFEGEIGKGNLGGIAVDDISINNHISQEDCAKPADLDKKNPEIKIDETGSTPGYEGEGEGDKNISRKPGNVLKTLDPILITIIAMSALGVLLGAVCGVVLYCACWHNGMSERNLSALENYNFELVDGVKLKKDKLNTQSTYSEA

HUVEC = system: HUVEC; set-up: method as in PMID 17283031; conditions: cited from earlier work; for Light doses 50 values: red light
[5] = biological target: T1, recombinant NRP-1 protein; experiment: Competitive binding ELISA, displacement of biotinylated VEGF165
Description: The molecular affinity of the different TPC–peptide conjugates for recombinant NRP-1 protein was estimated through a competitive binding test using biotinylated VEGF165 to NRP-1 receptor recognition recombinant. As biotinylated VEGF165 binding to this receptor is heparin dependent, the competitive binding tests were performed in the presence of heparin (2 µg/mL).
The conjugates were first dissolved in DMSO and subsequently diluted in methanol. Tween-20 was added in the blocking buffer to assist in the solubilization of the conjugate. The samples were prepared in ten different concentrations ranging from 3 to 960 µM.

[6] = In vivo plasma concentration by HPLC after intravenous injection; conditions: mice, 2.8 mg/kg i.v., sampled at 1, 4 and 24 h
Description: The in vivo stability study was carried out with only two of the novel conjugates synthesized; TPC–PEG18–DKPPR and TPC–PEG18–TKPRR were selected because of to their interesting hydrophilicity properties. We selected TPC–Ahx–ATWLPPR conjugate as a reference based on our previous studies. Blood and tissue samples were weighed and kept at −80 °C in polypropylene tubes, until further processing. Extraction of the conjugates from the tissues required first a solubilization step, using TEM buffer (10 mM Tris, 1.66 mM EDTA, 5 mM molybdate, pH 7.4) and homogenization. […] Conjugates levels in the plasma and tissues were determined as a percentage of the injected dose per gram […] (% injected dose/g of tissue) or per milliliter plasma. […]
The in vivo stability analyses were performed by HPLC equipped with programmable software GOLD version 1.6 (Beckman Coulter, Fullerton, CA, USA), an auto sampler injector (507e, System Gold, Beckman Coulter) and a fluorescence detector (RF-10A XL, Shimadzu, Kyoto, Japan). […] Fluorescence excitation and emission wavelengths were detected at 416 and 652 nm, respectively. […] The conjugate levels in plasma and organs were determined from the peak areas and normalized based on standard calibration curves constructed earlier. The data were calculated as the mean value of three mice.

[7] = In vivo stability in plasma by MALDI-TOF MS; conditions: 24 h after administration, mice
Description: Female athymic Swiss nude/nude mice (7–9 weeks, weight range 20–25 g) were obtained from Harlan (Gannat, France). The in vivo study we conducted was based on the results obtained from the ELISA test conducted earlier. The conjugates of TPC–Ahx–ATWLPPR, TPC–PEG18–DKPPR and TPC–PEG18–TKPRR (2.8 mg/kg) were injected intravenously via the tail vein in ethanol–PEG 400–water (2:3:5, v/v/v). The mice were kept in the dark after the injection. After 1, 4 and 24 h, blood samples were collected and plasma was separated from the blood. The mice were sacrificed and tissues were carefully excised. All samples were kept in the dark at −80 °C in polypropylene tubes until further analysis.
MALDI-TOF MS analyses were carried out on a Bruker Reflex IV time-of-flight mass spectrometer (Bruker-Daltonic, Bremen, Germany) equipped with the SCOUT 384 probe ion source fitted with a nitrogen pulsed laser (337 nm, VSD-337ND model, Laser Science Inc., Boston, MA, USA). The laser output energy was 400 μJ/pulse. Positives ions were accelerated with a 200 ns extraction delay. The reflector voltage was 23 kV. […]
MALDI-TOF MS analyses were performed using 2,5-dihydroxybenzoic acid (DHB) (Sigma-Aldrich, Saint-Quentin-Fallavier, France) as the matrix. […] All samples were analyzed in duplicate.

[8] = set-up: method as in PMID 17283031; conditions: cited from earlier work

Compound: C1=Cc2nc1c(-c1ccccc1)c1ccc([nH]1)c(-c1ccccc1)c1nc(c(-c3ccccc3)c3ccc([nH]3)c2-c2ccccc2)C=C1 [TPP]
- Fluorescence quantum yield of standard reference Φf(ref) ([1]; in toluene): 0.11

- logD ([2]; n = 6, read-out: Shake Flask Method Distribution Coefficient, D (log D pH7.4)): 2.61 ± 0.2
- Molar Extinction Coefficient Soret ε415 [3]: 76000 L·M^−1·cm^−1
- Molar Extinction Coefficient QIV ε516 [3]: 8000 L·M^−1·cm^−1
- Molar Extinction Coefficient QIII ε543 [3]: 5000 L·M^−1·cm^−1
- Molar Extinction Coefficient QII ε598 [3]: 4000 L·M^−1·cm^−1
- Molar Extinction Coefficient QI ε650 [3]: 12000 L·M^−1·cm^−1
- Fluorescence quantum yield Φf [3]: 0.18
- Singlet oxygen quantum yield Φ∆ [3]: 0.47
Compound: O=C(O)c1ccc(-c2c3nc(c(-c4ccccc4)c4ccc([nH]4)c(-c4ccccc4)c4nc(c(-c5ccccc5)c5ccc2[nH]5)CC4)C=C3)cc1 [TPC, 5-(4-carboxyphenyl)-10,15,20-triphenyl chlorin]
- Displacement of the binding of VEGF165 [4]: failed to do so
- Light doses 50 values (HUVEC): 4.9 ± 0.64 J/cm^2
- Displacement of biotinylated VEGF165 binding onto NRP-1 protein ([5]; heparin 2 µg/mL): failed to displace; also recorded: did not show any significant binding at all

Compound: TKPPR
- Displacement of the binding of VEGF165 to recombinant NRP-1 (ELISA) ([4]; free peptides): able to displace the binding of VEGF165

Compound: O=C([O-])c1c(Cl)c(Cl)c(Cl)c(Cl)c1-c1c2cc(I)c(=O)c(I)c-2oc2c(I)c([O-])c(I)cc12.[Na+].[Na+] [rose Bengal]
- Singlet oxygen quantum yield of standard reference ΦΔ(ref) ([1]; in ethanol): 0.68

- IC50 [5]: 1 µM
Compound: DKPPR [DKPPR]

Compound: TPC–Ahx–ATWLPPR: TPC coupled via 6-aminohexanoic acid spacer to peptide ATWLPPR; group's earlier NRP-1 targeting conjugate ({TPC-Ahx}-ATWLPPR; reading uncertain; also: printed as TPC–Ahx–ATWLPPR)
- Shake Flask Method Distribution Coefficient, D (log D pH7.4) ([2]; n = 6): 2.61 ± 0.2
- Molar Extinction Coefficient Soret ε415 [3]: 74000 L·M^−1·cm^−1
- Molar Extinction Coefficient QIV ε516 [3]: 6800 L·M^−1·cm^−1
- Molar Extinction Coefficient QIII ε543 [3]: 4900 L·M^−1·cm^−1
- Molar Extinction Coefficient QII ε598 [3]: 2600 L·M^−1·cm^−1
- Molar Extinction Coefficient QI ε650 [3]: 12000 L·M^−1·cm^−1
- Fluorescence quantum yield Φf [3]: 0.18
- Singlet oxygen quantum yield Φ∆ [3]: 0.39
- Time up to which conjugate is found in plasma after intravenous injection [6]: up to 24 h
- MS signal of peak m/z 616 (attributed to the TPC moiety) in plasma [7]: not detected
- Displacement of the binding of VEGF165 [4]: managed to displace the binding of VEGF165
- IC50 ([4]; read-out: IC50, displacement of VEGF165 binding to NRP-1): 171 µM
- Time for which conjugate could be detected in the plasma [8]: ≥ 48 h
- Enhancement of photodynamic activity versus TPC (HUVEC): 10.4 fold
- Light doses 50 values (HUVEC): 0.47 ± 0.23 J/cm^2

- IC50 [5]: 1 µM
Compound: TKPRR [TKPRR]
